Data as given in patent US20070191393A1, “Macrocyclic anilinopyrimidines with substituted sulphoximine as selective inhibitors of cell cycle kinases” (priority 2006, published 2007).

Tests used:
Format in all cases: biochemical
KDR = target: T1, KDR (Homo sapiens, UniProt P35968); experiment: KDR kinase assay; details: 1 μM ATP, 22° C., 20 min
T1 construct: made in house; host or cells: SF9 insect cells
Description: Recombinant GST-KDR protein was expressed in SF9 insect cells and then purified. The kinase substrate used was the biotinylated peptide biotin-polyGluAlaTyr from Cisbio International.
GST-KDR [test volume 15 μl] was incubated in the presence of various concentrations of test substances (0 μM, and 10 measurement points within the range 0.001-20 μM in duplicate) in assay buffer [50 mM HEPES pH 7.0, 25 mM MgCl2, 5 mM MgCl2, 0.5 mM Na ortho-vanadate, 1 mM dithiothreitol, 10% glycerol, 1 μM ATP, 23.5 mg/L substrate peptide biotin-polyGluAlaTyr, 1% dimethyl sulphoxide, 1× protease inhibitor mix (from Roche)] at 22° C. for 20 min. The reaction was stopped by adding 5 μl of an EDTA/detection solution [50 mM HEPES pH 7.0, 250 mM EDTA, 0.5% BSA, 22 mg/L streptavidin-XL (from CisBio), 1 mg/L PT66-Eu (from PerkinElmer)]. The fluorescence emission at 620 nm and 665 nm after excitation with light of the wavelength 350 nm was measured in a Rubystar HTRF instrument from BMG Labsystems 60 minutes after addition of the EDTA/detection solution.
The measured data (ratio of emission 665 divided by emission 620 multiplied by 10 000) were normalized to 0% inhibition (enzyme reaction without inhibitor) and 100% inhibition (all assay components apart from enzyme). The IC50 values were determined by means of a 4-parameter fit using the company's own software.

Aurora-C = target: T2, Aurora-C (Homo sapiens, UniProt Q9UQB9); experiment: Aurora-C kinase assay; details: 3 μM ATP, 22° C., 90 min
T2 construct: made in house; host or cells: HEK293 (transiently transfected)
T2 sequence (Q9UQB9 1-309): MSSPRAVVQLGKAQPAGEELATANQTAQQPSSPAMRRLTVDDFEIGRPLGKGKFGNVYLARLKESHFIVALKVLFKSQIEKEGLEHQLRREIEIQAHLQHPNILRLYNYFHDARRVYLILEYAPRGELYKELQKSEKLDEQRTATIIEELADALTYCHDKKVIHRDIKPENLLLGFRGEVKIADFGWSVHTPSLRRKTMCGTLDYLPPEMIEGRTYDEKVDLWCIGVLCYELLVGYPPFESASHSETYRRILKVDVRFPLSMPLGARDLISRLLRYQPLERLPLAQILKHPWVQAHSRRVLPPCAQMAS
Description: Recombinant Aurora-C protein was expressed in transiently transfected HEK293 cells and then purified. The kinase substrate used was the biotinylated peptide having the amino acid sequence biotin-FMRLRRLSTKYRT, which was purchased from Jerini A G in Berlin.
Aurora-C [5 nM in the test mixture, test volume 5 μl] was incubated in the presence of various concentrations of test substances (0 μM and 10 measurement points within the range 0.001-20 μM in duplicate) in assay buffer [25 mM HEPES pH 7.4, 0.5 mM MnCl2, 0.1 mM Na ortho-vanadate, 2.0 mM dithiothreitol, 0.05% bovine serum albumin (BSA), 0.01% Triton X-100, 3 μM adenosine trisphosphate (ATP), 0.67 nCi/μl gama-P33-ATP, 2.0 μM substrate peptide biotin-FMRLRRLSTKYRT, 1.0% dimethyl sulphoxide] at 22° C. for 90 min. The reaction was stopped by adding 12.5 μl of an EDTA/detection solution [16 mM EDTA, 40 mM ATP, 0.08% Triton X-100, 4 mg/ml PVT streptavidin SPA beads (from Amersham)]. After incubation for 10 minutes, the SPA beads were pelleted by centrifugation at 1000×G for 10 minutes. Measurement took place in a PerkinElmer Topcount scintillation counter. The measured data were normalized to 0% inhibition (enzyme reaction without inhibitor) and 100% inhibition (enzyme reaction in the presence of 0.1 μM staurosporine (from Sigma)). The IC50 values were determined by means of a 4-parameter fit using the company's own software.

CDK1/CycB = target: T3, CDK1/CycB (Homo sapiens, UniProt P06493); experiment: CDK1/CycB kinase assay; details: 0.5 μM ATP, 22° C., 10 min
T3 construct: GST; purchased ProQinase GmbH, Freiburg; host or cells: baculovirus-infected Sf9 insect cells
T3 sequence (P06493 whole entry): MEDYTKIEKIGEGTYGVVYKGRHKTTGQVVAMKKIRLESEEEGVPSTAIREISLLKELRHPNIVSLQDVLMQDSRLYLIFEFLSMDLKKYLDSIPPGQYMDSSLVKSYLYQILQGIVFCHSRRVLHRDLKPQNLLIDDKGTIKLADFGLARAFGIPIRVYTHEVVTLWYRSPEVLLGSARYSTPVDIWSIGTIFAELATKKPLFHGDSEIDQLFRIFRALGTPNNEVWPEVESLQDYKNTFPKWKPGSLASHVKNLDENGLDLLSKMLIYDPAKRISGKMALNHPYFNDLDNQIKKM
T3 sequence (P14635 whole entry partner): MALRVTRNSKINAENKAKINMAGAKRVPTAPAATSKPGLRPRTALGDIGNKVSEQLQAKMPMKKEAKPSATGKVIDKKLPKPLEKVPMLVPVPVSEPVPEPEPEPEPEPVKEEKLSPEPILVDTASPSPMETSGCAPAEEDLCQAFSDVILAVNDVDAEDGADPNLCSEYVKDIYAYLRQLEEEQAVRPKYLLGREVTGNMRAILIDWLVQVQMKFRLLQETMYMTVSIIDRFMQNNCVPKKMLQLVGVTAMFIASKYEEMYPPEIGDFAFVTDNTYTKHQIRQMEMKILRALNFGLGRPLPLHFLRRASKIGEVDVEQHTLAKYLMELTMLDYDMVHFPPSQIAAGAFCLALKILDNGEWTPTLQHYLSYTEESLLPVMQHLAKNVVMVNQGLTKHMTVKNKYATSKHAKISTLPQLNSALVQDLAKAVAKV
Description: Recombinant CDK1- and CycB-GST fusion proteins, purified from baculovirus-infected insect cells (Sf9), were purchased from ProQinase GmbH, Freiburg. The histone IIIS used as kinase substrate can be purchased from Sigma. CDK1/CycB (200 ng/measurement point) was incubated in the presence of various concentrations of test substances (0 μM, and within the range 0.01-100 μM) in assay buffer [50 mM Tris/HCl pH 8.0, 10 mM MgCl2, 0.1 mM Na ortho-vanadate, 1.0 mM dithiothreitol, 0.5 μM ATP, 10 μg/measurement point histone IIIS, 0.2 μCi/measurement point 33P-gamma ATP, 0.05% NP40, 1.25% dimethyl sulphoxide] at 22° C. for 10 min. The reaction was stopped by adding EDTA solution (250 mM, pH 8.0, 15 μl/measurement point).
15 μl of each reaction mixture were loaded onto P30 filter strips (from Wallac), and non-incorporated 33P-ATP was removed by washing the filter strips three times in 0.5% strength phosphoric acid for 10 min each time. After the filter strips had been dried at 70° C. for 1 hour, the filter strips were covered with scintillator strips (MeltiLex™ A, from Wallac) and baked at 90° C. for 1 hour. The amount of incorporated 33P (substrate phosphorylation) was determined by scintillation measurement in a gamma radiation counter (Wallac).

T1 sequence (P35968 20-1356, species assumed): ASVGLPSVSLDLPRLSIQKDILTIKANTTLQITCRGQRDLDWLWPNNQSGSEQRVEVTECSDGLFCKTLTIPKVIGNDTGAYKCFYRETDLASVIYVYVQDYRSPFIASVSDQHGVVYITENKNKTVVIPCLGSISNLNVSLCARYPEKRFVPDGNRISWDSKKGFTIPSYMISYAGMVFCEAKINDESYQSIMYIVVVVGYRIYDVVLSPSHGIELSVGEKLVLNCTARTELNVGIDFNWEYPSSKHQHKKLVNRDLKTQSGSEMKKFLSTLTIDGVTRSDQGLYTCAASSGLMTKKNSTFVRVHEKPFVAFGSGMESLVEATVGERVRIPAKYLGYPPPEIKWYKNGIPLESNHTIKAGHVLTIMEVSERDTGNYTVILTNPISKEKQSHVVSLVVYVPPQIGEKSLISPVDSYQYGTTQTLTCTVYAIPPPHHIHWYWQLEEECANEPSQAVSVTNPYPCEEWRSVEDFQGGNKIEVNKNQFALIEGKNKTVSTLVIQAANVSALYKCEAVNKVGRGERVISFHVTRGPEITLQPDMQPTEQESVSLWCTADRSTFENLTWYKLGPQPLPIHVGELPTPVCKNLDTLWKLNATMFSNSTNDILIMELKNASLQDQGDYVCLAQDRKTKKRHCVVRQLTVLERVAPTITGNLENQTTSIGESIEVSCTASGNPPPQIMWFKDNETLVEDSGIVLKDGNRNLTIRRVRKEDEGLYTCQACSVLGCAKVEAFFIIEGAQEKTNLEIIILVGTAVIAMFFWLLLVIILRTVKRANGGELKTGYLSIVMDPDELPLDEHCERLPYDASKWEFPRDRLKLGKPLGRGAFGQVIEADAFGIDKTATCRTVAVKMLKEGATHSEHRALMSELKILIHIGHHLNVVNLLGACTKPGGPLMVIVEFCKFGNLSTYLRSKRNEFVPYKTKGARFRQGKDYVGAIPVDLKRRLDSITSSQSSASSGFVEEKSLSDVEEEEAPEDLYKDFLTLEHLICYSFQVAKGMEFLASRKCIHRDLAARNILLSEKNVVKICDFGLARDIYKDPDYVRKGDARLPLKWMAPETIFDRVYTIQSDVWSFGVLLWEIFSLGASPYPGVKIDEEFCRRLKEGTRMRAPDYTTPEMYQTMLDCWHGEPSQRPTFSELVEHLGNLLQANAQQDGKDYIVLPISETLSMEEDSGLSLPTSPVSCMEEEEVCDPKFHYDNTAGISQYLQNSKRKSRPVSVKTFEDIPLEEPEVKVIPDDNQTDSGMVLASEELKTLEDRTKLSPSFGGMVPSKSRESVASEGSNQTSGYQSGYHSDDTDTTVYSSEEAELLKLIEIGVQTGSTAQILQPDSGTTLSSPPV

Row | IC50 (KDR) | IC50 (Aurora-C) | IC50 (CDK1/CycB) | Structure (SMILES)
1 | 61 nM | 19 nM | 173 nM | CCOC(=O)N=S(C)(=O)c1ccc2cc1NCCCCNc1nc(ncc1Br)N2 (racemic) [Example 1, (RS)—S-[1^5-Bromo-2,4,9-triaza-1(2,4)-pyrimidina-3(1,3)-benzenacyclononaphan-3^4-yl]-N-(ethoxycarbonyl)-S-methylsulphoximide]
2 | 198 nM | 13 nM | 104 nM | CCOC(=O)N=S(C)(=O)c1ccc2cc1NCCCCNc1nc(ncc1Br)N2 (single isomer, unassigned) [Example 2]
3 | 22 nM | 19 nM | 70 nM | CCNC(=O)N=S(C)(=O)c1ccc2cc1NCCCCNc1nc(ncc1Br)N2 (racemic) [Example 6, (RS)—S-[1^5-Bromo-2,4,9-triaza-1(2,4)-pyrimidina-3(1,3)-benzenacyclononaphan-3^4-yl]-N-(ethylcarbamoyl)-S-methylsulphoximide]
4 | 7 nM | 34 nM | 452 nM | CCCS(=O)(=O)N=S(C)(=O)c1ccc2cc1NCCCCNc1nc(ncc1Br)N2 (racemic) [Example 7, (RS)—S-[1^5-Bromo-2,4,9-triaza-1(2,4)-pyrimidina-3(1,3)-benzenacyclononaphan-3^4-yl]-S-methyl-N-(propylsulphonyl)sulphoximide]
5 | 289 nM | 69 nM | 210 nM | CCOC(=O)N=S(C)(=O)c1ccc2cc1NCCCCNc1nc(ncc1Br)N2 (single isomer, unassigned) [Example 3]

The next lines start with the molecule.

Row | Structure (SMILES) | IC50 (KDR) | IC50 (Aurora-C) | IC50 (CDK1/CycB)
6 | CCCOC(=O)N=S(C)(=O)c1ccc2cc1OCCCCNc1nc(ncc1Br)N2 (racemic) [Example 8, (RS)—S-[1^5-Bromo-4-oxa-2,9-diaza-1(2,4)-pyrimidina-3(1,3)-benzenacyclononaphan-3^4-yl]-S-methyl-N-(propoxycarbonyl)sulphoximide] | 136 nM | 283 nM | 438 nM
7 | C[Si](C)(C)CCS(=O)(=O)N=S(C)(=O)c1ccc2cc1OCCCCNc1nc(ncc1Br)N2 (racemic) [Example 9, (RS)—S-[1^5-Bromo-4-oxa-2,9-diaza-1(2,4)-pyrimidina-3(1,3)-benzenacyclononaphan-3^4-yl]-S-methyl-N-[2-(trimethylsilyl)ethylsulphonyl]sulphoximide] | 60 nM | 95 nM | > 1000 nM
8 | CCOC(=O)N=S(C)(=O)c1ccc2cc1NCCCCNc1nc(ncc1I)N2 (racemic) [Example 4, (RS)—N-(Ethoxycarbonyl)-S-[1^5-iodo-2,4,9-triaza-1(2,4)-pyrimidina-3(1,3)-benzenacyclononaphan-3^4-yl]-S-methylsulphoximide] | 9 nM | 24 nM | 118 nM
9 | C[Si](C)(C)CCS(=O)(=O)N=S(C)(=O)c1ccc2cc1NCCCCNc1nc(ncc1Br)N2 (racemic) [Example 5, (RS)—S-[1^5-Bromo-2,4,9-triaza-1(2,4)-pyrimidina-3(1,3)-benzenacyclononaphan-3^4-yl]-S-methyl-N-[2-(trimethylsilyl)ethylsulphonyl]sulphoximide] | 22 nM | 88 nM | > 1000 nM
